“And” between values parts separate entries of the source, which are not always exact repeats. Equal entries are not always repeated. Where two headings read alike, the source gives them in different places.
Tests used:
CDK7 = biological target: T1, CDK7 (Homo sapiens, UniProt P50613); test: KINOMEscan CDK7 binding constant (Kd) determination; conditions: KINOMEscan competition binding, 11-point 3-fold dilution
T1 construct: made in house; host or cells: E. coli BL21-derived host (T7 phage) or HEK-293

CDK7/CycH/MAT1 = CDK7/CycH/MAT1 (Homo sapiens, UniProt P50613); test: In vitro irreversible dialysis assay; type: biochemical; conditions: 700 nM compound pre-incubated 2 h with 50 nM enzyme, dialyzed 24 h at RT
Experimental: 700 nM CY-16-1 compound was pre-incubated with 50 nM CDK7/CycH/MAT1 enzyme for 2 h in a buffer comprising: 100 mM HEPES pH7.5, 0.1% BSA, 5 mM MgCl2, 1 mM DTT, 0.01% Triton X-100 and dialyzed at RT against the same buffer for a total time of 24 h (3 changes of the dialysis buffer, nominal cumulative dialysis factor: 30,000). Control samples included: DMSO+50 nM CDK7 dialyzed in the identical manner Un-dialyzed samples with compound were assembled and incubated for 24 h at RT. Following dialysis, the CDK7 activity was measured in real-time format in the presence of 100 uM ATP and 1 uM substrate peptide. Initial velocity was determined in the samples.

DMS 114 = test: In vitro anti-proliferation assay (ATPlite); type: cell-based; conditions: SCLC cell line DMS 114, about 72 hours, read-out: anti-proliferative IC50
Experimental: (§1) Cell antiproliferation is assayed by PerkinElmer ATPlite™ Luminescence Assay System. Briefly, the various test cancer cell lines are plated at a density of about 1×10^4 cells per well in Costar 96-well plates, and are incubated with different concentrations of compounds for about 72 hours in medium supplemented with 5% FBS. One lyophilized substrate solution vial is then reconstituted by adding 5 mL of substrate buffer solution, and is agitated gently until the solution is homogeneous. About 50 μL of mammalian cell lysis solution is added to 100 μL of cell suspension per well of a microplate, and the plate is shaken for about five minutes in an orbital shaker at ˜700 rpm. This procedure is used to lyse the cells and to stabilize the ATP. Next, 50 μL substrate solution is added to the wells and microplate is shaken for five minutes in an orbital shaker at ˜700 rpm. Finally, the luminescence is measured by a PerkinElmer TopCount® Microplate Scintillation Counter.
(§2) As shown in the following table, the CY-16-1 has potent anticancer activity in small cell lung cancer (SCLC) cell lines. Cisplatin, the first line treatment of SCLC, was used as a reference drug in this assay: […]

NCI-H209 = test: In vitro anti-proliferation assay (ATPlite); type: cell-based; conditions: SCLC cell line NCI-H209, about 72 hours, read-out: anti-proliferative IC50
Experimental: as §1, §2

NCI-H446 = test: In vitro anti-proliferation assay (ATPlite); type: cell-based; conditions: SCLC cell line NCI-H446, about 72 hours, read-out: anti-proliferative IC50
Experimental: as §1, §2

NCI-H69 = test: In vitro anti-proliferation assay (ATPlite); type: cell-based; conditions: SCLC cell line NCI-H69, about 72 hours, read-out: anti-proliferative IC50
Experimental: as §1, §2

NCI-H82 = test: In vitro anti-proliferation assay (ATPlite); type: cell-based; conditions: SCLC cell line NCI-H82, about 72 hours, read-out: anti-proliferative IC50
Experimental: as §1, §2

CDK7/cyclinH1/MNAT1 = CDK7/cyclinH1/MNAT1 (Homo sapiens, UniProt P50613); test: Inhibition of CDK-7 enzymatic activity (p33 ATP radiometric assay)
CDK7/cyclinH1/MNAT1, sequence (P50613 whole entry): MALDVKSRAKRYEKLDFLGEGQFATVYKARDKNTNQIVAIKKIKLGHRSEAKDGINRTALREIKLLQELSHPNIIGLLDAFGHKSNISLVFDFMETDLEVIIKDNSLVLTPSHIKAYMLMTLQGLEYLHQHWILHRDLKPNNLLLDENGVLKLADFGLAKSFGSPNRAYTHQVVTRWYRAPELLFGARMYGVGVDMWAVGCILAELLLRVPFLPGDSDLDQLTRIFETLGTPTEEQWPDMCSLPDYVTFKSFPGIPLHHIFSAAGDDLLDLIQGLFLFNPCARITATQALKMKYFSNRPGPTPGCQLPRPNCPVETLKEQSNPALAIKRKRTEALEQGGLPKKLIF
CDK7/cyclinH1/MNAT1, sequence (P51946 whole entry partner): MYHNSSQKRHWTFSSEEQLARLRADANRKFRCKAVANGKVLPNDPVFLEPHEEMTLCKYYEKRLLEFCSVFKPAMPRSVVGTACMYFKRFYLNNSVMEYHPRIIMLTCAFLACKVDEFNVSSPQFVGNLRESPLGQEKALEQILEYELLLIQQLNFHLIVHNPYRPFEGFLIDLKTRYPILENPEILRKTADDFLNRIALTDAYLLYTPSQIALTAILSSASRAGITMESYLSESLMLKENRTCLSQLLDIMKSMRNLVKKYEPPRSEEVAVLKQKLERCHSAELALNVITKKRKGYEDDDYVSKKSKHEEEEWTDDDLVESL
CDK7/cyclinH1/MNAT1, sequence (P51948 whole entry partner): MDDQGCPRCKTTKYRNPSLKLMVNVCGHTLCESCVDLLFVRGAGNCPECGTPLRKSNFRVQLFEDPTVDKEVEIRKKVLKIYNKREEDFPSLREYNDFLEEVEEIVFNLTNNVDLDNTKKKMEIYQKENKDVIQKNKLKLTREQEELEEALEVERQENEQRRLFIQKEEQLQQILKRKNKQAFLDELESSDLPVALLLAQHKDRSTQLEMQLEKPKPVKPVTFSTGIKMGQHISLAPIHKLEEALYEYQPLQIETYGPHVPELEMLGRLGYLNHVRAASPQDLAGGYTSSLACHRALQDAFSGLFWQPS

T1 sequence (P50613 whole entry): as the sequence (P50613 whole entry) above
CDK7/CycH/MAT1, sequence (P50613 whole entry): as above
CDK7/CycH/MAT1, sequence (P51946 whole entry partner): as the sequence (P51946 whole entry partner) above
CDK7/CycH/MAT1, sequence (P51948 whole entry partner): as the sequence (P51948 whole entry partner) above

| Kd (CDK7) [nM] | Reversibility of CDK7 inhibition after dialysis (CDK7/CycH/MAT1) | IC50 (NCI-H209; Homo sapiens) [nM] | IC50 (NCI-H446; Homo sapiens) [nM] | IC50 (NCI-H69; Homo sapiens, NCI-H69, 72 h) [nM] | IC50 (NCI-H82; Homo sapiens) [nM] | IC50 (CDK7/cyclinH1/MNAT1) [nM] | Structure (SMILES) | IC50 (DMS 114; Homo sapiens) [nM] | IC50 (NCI-H69) | IC50 (DMS 114) [nM] | IC50 (NCI-H209) [nM] | IC50 (NCI-H446) [nM] | IC50 (NCI-H82) [nM] |
| --- | --- | --- | --- | --- | --- | --- | --- | --- | --- | --- | --- | --- | --- |
| < 1 | irreversible inhibitor of CDK7 | 30 | 19 | 32 | 28 | < 15 | C=CC(=O)Nc1ccc(C(=O)Nc2cc3cc(c2)Nc2nccc(n2)-c2cccc(c2)OCC/C=C/CN(C)C3)cc1 [CY-16-1] | 29 | 18 nM | – | – | – | – |
| – | – | – | – | – | – | – | N.N.[Cl][Pt][Cl] [Cisplatin, reference compound] | – | 7000 nM and 7700 nM | 5950 | 274 | 7450 | 4510 |

— patent US10456397B2, “Covalent inhibitors of CDK-7” (Newave Pharmaceutical Inc., priority 2015, dated 2019)
